Data taken from article PMC8899577, “Targeting the anti-apoptotic Bcl-2 family proteins: machine learning virtual screening and biological evaluation of new small molecules” (Theranostics, 2022).

Assays:
Format in all cases: cell-based, Human
H1299 cells [1] = assay: Western blot of LC3B-I/LC3B-II (autophagy), H1299; details: 72 h, increasing concentration
Method: (§1) Western blot analyses of total protein extracts were performed as previously described. Immunodetection was performed using antibodies directed to poly (ADP-ribose) polymerase (PARP; BD Biosciences San Diego, CA, USA), LC3B (Cell Signaling Technology, Danvers, MA), HSP72/73 (Calbiochem, EMD Biosciences, La Jolla, CA), Bcl-2 (SC-509, Santa Cruz Biotechnology Inc, Dallas, TX, USA), Bcl-xL (SC-271121, Santa Cruz Biotechnology Inc), Mcl-1 (SC-12756, Santa Cruz Biotechnology Inc) α-tubulin (Santa Cruz Biotechnology Inc) actin (Sigma-Aldrich, St. Louis, Missouri, USA). Anti-rabbit or anti-mouse immunoglobulin G-horseradish peroxidase-conjugated antibodies (Amersham Biosciences, Freiburg, Germany) were used as secondary antibody. […]
(§2) Figure 6 Analysis of autophagosome accumulation in M14 and H1299 cells after treatment with IS20 or IS21. […] Ratio of LC3B-II on LC3B-I levels, after normalization on HSP72/73, Actin or α-Tubulin, is quantified by densitometric analysis. (D) (Upper panels) Representative images and (lower panels) relative quantification of fluorescence microscopic analysis of LC3B puncta positive cells in M14 EGFP-LC3B and H1299 EGFP-LC3B transfected cells, treated with IS20 or IS21 (20 µM for 72h). […] Cells with more than 10 puncta were considered autophagy-positive. p-values were calculated between untreated (Ctrl) and treated cells, * p < 0.05.

HL60 cells = assay: Flow cytometry subG1 peak (PI staining), HL60; details: 20 µM for 24 h
Method: (§3) Flow cytometric analysis (BD Accuri™ C6, BD Biosciences) was performed to evaluate cell cycle distribution by propidium iodide (PI) staining, and cell viability by using the PI dye exclusion assay as previously reported.
(§4) Figure 5 Analysis of apoptosis induction by IS20 and IS21 in leukemia, melanoma and NSCLC cells. […] (A-F) Reported images are representative of two independent experiments with similar results. HSP72/73 or α-Tubulin are shown as loading and transferring control. (G) Flow cytometric quantification of cells in the subG1 peak of cell cycle distribution by propidium iodide staining in HL60 cell line treated with IS20 or IS21 (20 μM for 24 h) and in M14, H1299 and MDA-MB-231 cell lines treated with IS20 or IS21 (20 μM for 72 h). Data are reported as mean ± SD of three independent experiments. p-values were calculated between control (Ctrl) and treated cells, * p < 0.05. (H) Flow cytometric quantification of cells in the subG1 peak by propidium iodide staining in M14 and H1299 cell lines treated with IS20 or IS21 (20 μM, 72 h) in presence or absence of the pan caspase inhibitor z-VAD (50 μM). p-values were calculated between treated control (Ctrl) cells, # p < 0.01, ## p < 0.001 or between cells treated with IS20 or IS21 alone or in combination with z-VAD, * p < 0.05, ** p < 0.005. (G-H) Data are reported as mean of two (H) or three (G) experiments ± SD.

HCT116 cells = assay: Western blot of PARP1 cleavage, HCT116; details: 72 h
Method: as §1, with “antibody. Images were acquired by Image Lab Software (Bio-Rad, Hercules, CA, USA), using a ChemiDoc System instrument (Bio-Rad).” for “antibody.”
(§5) Figure 5 Analysis of apoptosis induction by IS20 and IS21 in leukemia, melanoma and NSCLC cells. […] (G) Flow cytometric quantification of cells in the subG1 peak of cell cycle distribution by propidium iodide staining in HL60 cell line treated with IS20 or IS21 (20 μM for 24 h) and in M14, H1299 and MDA-MB-231 cell lines treated with IS20 or IS21 (20 μM for 72 h). Data are reported as mean ± SD of three independent experiments. p-values were calculated between control (Ctrl) and treated cells, * p < 0.05. […]

U937 cells = assay: Western blot of PARP1 cleavage, U937; details: 20 µM for 24 h
Method: as §1, with “antibody. Images were acquired by Image Lab Software (Bio-Rad, Hercules, CA, USA), using a ChemiDoc System instrument (Bio-Rad).” for “antibody.”
as §5

H1299 cells [2] = assay: Flow cytometry subG1 peak (PI staining), H1299; details: 20 µM for 72 h
Method: as §3, §4

M14 cells [3] = assay: Western blot of LC3B-I/LC3B-II (autophagy), M14; details: 72 h
Method: (§6) Western blot analyses of total protein extracts were performed as previously described. Immunodetection was performed using antibodies directed to poly (ADP-ribose) polymerase (PARP; BD Biosciences San Diego, CA, USA), LC3B (Cell Signaling Technology, Danvers, MA), HSP72/73 (Calbiochem, EMD Biosciences, La Jolla, CA), Bcl-2 (SC-509, Santa Cruz Biotechnology Inc, Dallas, TX, USA), Bcl-xL (SC-271121, Santa Cruz Biotechnology Inc), Mcl-1 (SC-12756, Santa Cruz Biotechnology Inc) α-tubulin (Santa Cruz Biotechnology Inc) actin (Sigma-Aldrich, St. Louis, Missouri, USA). Anti-rabbit or anti-mouse immunoglobulin G-horseradish peroxidase-conjugated antibodies (Amersham Biosciences, Freiburg, Germany) were used as secondary antibody. Images were acquired by Image Lab Software (Bio-Rad, Hercules, CA, USA), using a ChemiDoc System instrument (Bio-Rad). The densitometric evaluation was performed using Image J software and normalized with relative controls.
as §2, with “IS21. Western blot analysis of LC3B-I and LC3B-II protein levels in (A) M14, and (B) H1299 cell lines untreated (Ctrl) or treated with IS20 or IS21 for 72 h at the indicated concentrations. (C) Western blot analysis of LC3B-I and LC3B-II levels in HL60 and U937 cell lines untreated (Ctrl) or treated with IS20 or IS21 (20 μM for 24 h). (A-C) Reported images are representative of two independent experiments with similar results. HSP72/73, Actin or α-Tubulin are shown as loading and transferring control.” for “IS21.”

M14 cells [4] = assay: Western blot of PARP1 cleavage, M14; details: 72 h
Method: as §6, §4

M14 cells [5] = assay: Clonogenic assay, M14; details: 20 µM for 72 h, respect to controls
Method: The effect of compounds on cell viability was performed by measuring 3-[4,5-dimethylthiazol-2-yl]-2,5-diphenyltetrazolium bromide inner salt (MTT, Sigma-Aldrich) dye absorbance (solid tumor cells) or by quantization of ATP present in metabolically active cells using CellTiter-Glo® Luminescent (Promega, Fitchburg, Wisconsin, USA) (hematologic cells) following manifacturer's protocol. To evaluate the cell colony-forming ability, cell suspension from different samples was seeded into 60-mm Petri dishes. After 10 days, colonies were stained with 2% methylene blue in 95% ethanol and counted (1 colony > 50 cells). The surviving fractions were calculated as the ratio of absolute survival of the treated sample/survival of DMSO-treated control sample.
Figure 4 Analysis of the effect of IS20 and IS21 on cell viability, clonogenic ability and tumor sphere formation in cancer cells. […] (B) Representative images and quantification of clonogenic ability evaluated in M14 and H1299 cells treated with IS20 or IS21 (20 μM for 72 h). […] (C) Quantification of tumor sphere formation of M14 and H1299 cells treated with IS20 or IS21 (20 μM for 72 h). […] (A-C) Data are reported as mean ± SD of three independent experiments. p-values were calculated between control (Ctrl) and treated cells, ** p < 0.001 and *** p < 0.0001.

## CCCCOc1ccc(C2/C(=C(\O)c3ccc4c(c3)CC(C)O4)C(=O)C(=O)N2c2nnc(SCc3ccc(Cl)cc3)s2)cc1OCC (stereo not shown) [IS20]
H1299 cells [1]
  ratio of LC3B-II on LC3B-I protein levels, H1299: higher level
HL60 cells
  subG1 peak of cell cycle distribution, HL60: presence of subG1 peak
HCT116 cells
  PARP1 cleavage, HCT116: not evident
U937 cells
  PARP1 cleavage, U937: cleavage of PARP1
H1299 cells [2]
  subG1 peak of cell cycle distribution, H1299: presence of subG1 peak
M14 cells [3]
  ratio of LC3B-II on LC3B-I / LC3B-II protein level, M14: higher level
M14 cells [4]
  PARP1 cleavage, M14: cleavage of PARP1
M14 cells [5]
  decrease of cell colony formation, M14: 80-90%

## CCCCCOc1ccc(C2/C(=C(\O)c3ccc4c(c3)CC(C)O4)C(=O)C(=O)N2c2nnc(SCc3ccc(Cl)cc3)s2)cc1OCC (stereo not shown) [IS21]
H1299 cells [1]
  ratio of LC3B-II on LC3B-I protein levels, H1299: higher level
HL60 cells
  subG1 peak of cell cycle distribution, HL60: presence of subG1 peak
HCT116 cells
  PARP1 cleavage, HCT116: not evident
U937 cells
  PARP1 cleavage, U937: cleavage of PARP1
H1299 cells [2]
  subG1 peak of cell cycle distribution, H1299: presence of subG1 peak
M14 cells [3]
  ratio of LC3B-II on LC3B-I / LC3B-II protein level, M14: higher level
M14 cells [4]
  PARP1 cleavage, M14: cleavage of PARP1
M14 cells [5]
  decrease of cell colony formation, M14: 80-90%
